For test [1], the system named is Micrococcus luteus. Description: Antibacterial activity against Micrococcus luteus MTCC 1538 assessed as growth inhibition after 24 hr by tube dilution method. The class given is functional. The following applies: MTCC 1538, 24 h.
The test system of test [2] is Pseudomonas aeruginosa. Description: Antibacterial activity against Pseudomonas aeruginosa MTCC 424 assessed as growth inhibition after 24 hr by tube dilution method. The class given is functional. The following applies: MTCC 424, 24 h.
Test [3] deals with Pseudomonas fluorescens. Put plainly: Antibacterial activity against Pseudomonas fluorescens MTCC 2421 assessed as growth inhibition after 24 hr by tube dilution method. The class given is functional. The following applies: MTCC 2421, 24 h.
Test [4] relates to Bacillus pumilus. Put plainly: Antibacterial activity against Bacillus pumilus MTCC 1456 assessed as growth inhibition after 24 hr by tube dilution method. The class given is functional. The following applies: MTCC 1456, 24 h.
The subject of test [5] is Bacillus subtilis. Put plainly: Antibacterial activity against Bacillus subtilis MTCC 441 assessed as growth inhibition at 750 ug/mL after 48 hr by agar diffusion method. Conditions: MTCC 441, 48 h, read-out: DIZ. The class given is functional.
Test [6] has as its system Bacillus subtilis. Put plainly: Antibacterial activity against Bacillus subtilis MTCC 441 assessed as growth inhibition at 100 ug/mL after 48 hr by agar diffusion method. The format is functional. Conditions: for zone of inhibition at 100 µg/mL: MTCC 441, 48 h, read-out: DIZ. Background: A growth-free zone around the sample is the usual read-out of agar diffusion tests.

In test [7] the test system is Penicillium chrysogenum. Description: Antifungal activity against Penicillium chrysogenum MTCC 161 assessed as growth inhibition at 1000 ug/mL after 48 hr by agar diffusion method. The format is functional. Conditions: MTCC 161, 48 h, read-out: DIZ.
The subject of test [8] is Aspergillus niger. Description: Antifungal activity against Aspergillus niger MTCC 2546 assessed as growth inhibition at 1000 ug/mL after 48 hr by agar diffusion method. The class given is functional. Conditions: MTCC 2546, 48 h, read-out: DIZ.
Test [9] concerns Pseudomonas fluorescens. Put plainly: Antibacterial activity against Pseudomonas fluorescens MTCC 2421 assessed as growth inhibition at 500 ug/mL after 48 hr by agar diffusion method. The following applies: MTCC 2421, 48 h, read-out: DIZ. The class given is functional.
The test system of test [10] is Pseudomonas fluorescens. Put plainly: Antibacterial activity against Pseudomonas fluorescens MTCC 2421 assessed as growth inhibition at 250 ug/mL after 48 hr by agar diffusion method. The format is functional. The following applies: MTCC 2421, 48 h, read-out: DIZ.
The test system of test [11] is Micrococcus luteus. Put plainly: Antibacterial activity against Micrococcus luteus MTCC 1538 assessed as growth inhibition at 500 ug/mL after 48 hr by agar diffusion method. The class given is functional. Conditions: MTCC 1538, 48 h, read-out: DIZ.
In test [12] the test system is Micrococcus luteus. Description: Antibacterial activity against Micrococcus luteus MTCC 1538 assessed as growth inhibition at 250 ug/mL after 48 hr by agar diffusion method. The class given is functional.
Test [13] relates to Bacillus pumilus. Put plainly: Antibacterial activity against Bacillus pumilus MTCC 1456 assessed as growth inhibition at 1250 ug/mL after 48 hr by agar diffusion method. The class given is functional. Conditions: MTCC 1456, 48 h, read-out: DIZ.
In test [14] the test system is Bacillus pumilus. Description: Antibacterial activity against Bacillus pumilus MTCC 1456 assessed as growth inhibition at 750 ug/mL after 48 hr by agar diffusion method. The class given is functional. The following applies: MTCC 1456, 48 h, read-out: DIZ.
In test [15] the test system is Bacillus pumilus. Put plainly: Antibacterial activity against Bacillus pumilus MTCC 1456 assessed as growth inhibition at 500 ug/mL after 48 hr by agar diffusion method. The following applies: MTCC 1456, 48 h, read-out: DIZ. The format is functional.
For test [16], the system named is Staphylococcus aureus. Put plainly: Antibacterial activity against Staphylococcus aureus MTCC 1430 assessed as growth inhibition at 1250 ug/mL after 48 hr by agar diffusion method. The following applies: MTCC 1430, 48 h, read-out: DIZ. The format is functional.
Test [17] has as its system Staphylococcus aureus. Description: Antibacterial activity against Staphylococcus aureus MTCC 1430 assessed as growth inhibition at 750 ug/mL after 48 hr by agar diffusion method. The format is functional. Conditions: MTCC 1430, 48 h, read-out: DIZ.
Test [18] has as its system Staphylococcus aureus. Put plainly: Antibacterial activity against Staphylococcus aureus MTCC 1430 assessed as growth inhibition at 500 ug/mL after 48 hr by agar diffusion method. The class given is functional. Conditions: MTCC 1430, 48 h, read-out: DIZ.
For test [19], the system named is Staphylococcus aureus. Description: Antibacterial activity against Staphylococcus aureus MTCC 1430 assessed as growth inhibition at 250 ug/mL after 48 hr by agar diffusion method. Conditions: for zone of inhibition at 250 µg/mL: MTCC 1430, 48 h, read-out: DIZ. The class given is functional.
In test [20] the test system is Staphylococcus aureus. Description: Antibacterial activity against Staphylococcus aureus MTCC 1430 assessed as growth inhibition at 100 ug/mL after 48 hr by agar diffusion method. The class given is functional, organism-based.
Test [21] has as its system Micrococcus luteus. Put plainly: Antibacterial activity against Micrococcus luteus MTCC 1538 assessed as growth inhibition at 1000 ug/mL after 48 hr by agar diffusion method. The class given is functional. Conditions: MTCC 1538, 48 h, read-out: DIZ.
Test [22] concerns Escherichia coli. Put plainly: Antibacterial activity against Escherichia coli MTCC 1573 assessed as growth inhibition at 100 ug/mL after 48 hr by agar diffusion method. The class given is functional. Conditions: MTCC 1573, 48 h, read-out: DIZ.
Test [23] concerns Pseudomonas aeruginosa. Description: Antibacterial activity against Pseudomonas aeruginosa MTCC 424 assessed as growth inhibition at 1250 ug/mL after 48 hr by agar diffusion method. The format is functional. The following applies: MTCC 424, 48 h, read-out: DIZ.
Test [24] relates to Pseudomonas aeruginosa. Put plainly: Antibacterial activity against Pseudomonas aeruginosa MTCC 424 assessed as growth inhibition at 1000 ug/mL after 48 hr by agar diffusion method. The format is functional. The following applies: MTCC 424, 48 h, read-out: DIZ.

In brackets after ≈: the same amount, converted by molar mass. Activity calls are given as the source filed them. No cut-off for these calls is given here.

Turning to `O=C1CSC(c2cccc3ccccc23)N1c1nnc2c3cc(Cl)ccc3nc-2s1` (configuration not stated), the MIC (commonly the least concentration at which growth counts as inhibited) stood at 150 µg/mL (≈ 334 µM) in test [1], 40 µg/mL (≈ 89.1 µM) in test [2], 40 µg/mL (≈ 89.1 µM) in test [3] and 40 µg/mL (≈ 89.1 µM) in [4]. Moreover, the results for the zone of inhibition at 750 µg/mL in [5], in test [14] and in [17] were 15 mm, 15 mm and 8 mm, respectively. Further, the “growth inhibition (GI)” value in test [6], in test [12], in test [19] and in test [20] was “inactive” each time. Also, the zone of inhibition at 1000 µg/mL in [7], in test [8], in test [21] and in test [24] was 15 mm throughout. Further, the zone of inhibition at 500 µg/mL amounted to 12 mm in test [9], 8 mm in test [11], 13 mm in test [15] and 6 mm in [18]. Also, the zone of inhibition at 250 µg/mL in test [10] is 11 mm. Besides, the zone of inhibition at 1250 µg/mL came to 20 mm in [13], 15 mm in [16] and 18 mm in test [23]. In addition, in [22], the zone of inhibition at 100 µg/mL is 7 mm.
Consider `CC1SCC(=O)N1c1nnc2c3cc(Cl)ccc3nc-2s1` (configuration not stated), for which the MIC is 150 µg/mL (≈ 445 µM) in test [1], 50 µg/mL (≈ 148 µM) in test [2], 150 µg/mL (≈ 445 µM) in test [3] and 40 µg/mL (≈ 119 µM) in test [4]. The zone of inhibition at 750 µg/mL is 17 mm in test [5], 13 mm in [14] and 13 mm in [17]. The zone of inhibition at 100 µg/mL was 8 mm in [6] and 9 mm in test [22]. Also, the zone of inhibition at 1000 µg/mL turned out to be 18 mm in test [7], 15 mm in [8], 17 mm in test [21] and 18 mm in test [24]. Besides, the zone of inhibition at 500 µg/mL came out at 8 mm in test [9], 10 mm in [11], 12 mm in test [15] and 10 mm in test [18]. Besides, the zone of inhibition at 250 µg/mL in test [10] amounted to 7 mm; in [19], 8 mm. In addition, the “growth inhibition (GI)” value in test [12] and in test [20] was “inactive” in each case. For the same compound, the values for the zone of inhibition at 1250 µg/mL in [13], in [16] and in test [23] were 18 mm, 19 mm and 20 mm, respectively.
In the case of `O=C1CSC(c2ccccn2)N1c1nnc2c3ccccc3nc-2s1` (configuration not stated), the MIC is 250 µg/mL (≈ 684 µM) in test [1], 30 µg/mL (≈ 82.1 µM) in [2], 50 µg/mL (≈ 137 µM) in test [3] and 50 µg/mL (≈ 137 µM) in test [4]. Moreover, the zone of inhibition at 750 µg/mL in test [5] was 13 mm; in [14], 17 mm; in test [17] it was 10 mm. The zone of inhibition at 100 µg/mL in test [6] was 8 mm; in test [22] it was 7 mm. The zone of inhibition at 1000 µg/mL turned out to be 15 mm in [7], 15 mm in test [8], 15 mm in [21] and 18 mm in test [24]. The zone of inhibition at 500 µg/mL in test [9] was 13 mm; in test [11], 11 mm; in test [15] it was 15 mm; in [18], 9 mm. The zone of inhibition at 250 µg/mL in [10] amounted to 10 mm; in test [12] (MTCC 1538, 48 h, read-out: DIZ), 8 mm; in test [19], 8 mm. The zone of inhibition at 1250 µg/mL is 21 mm in test [13], 15 mm in test [16] and 22 mm in test [23]. For the same compound, in [20], the “growth inhibition (GI)” value was “inactive”.
